The source made the active and inactive calls.
Tests used:
[1] = molecular target: Voltage-gated inwardly rectifying potassium channel KCNH2 (Homo sapiens, UniProt Q12809); conditions: Potency;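 note: confirmatory quantitative high-throughput screen measuring inhibition of hERG channel activity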
[2] = molecular target: DNA dC->dU-editing enzyme APOBEC-3A (Homo sapiens, UniProt P31941); assay: Dose Response confirmation of small molecule APOBEC3A DNA Deaminase Inhibitors via a fluorescence-based single-stranded DNA deaminase assay. [Related pubchem assays (depositor defined):AID493011, AID493024]; type: functional
DNA dC->dU-editing enzyme APOBEC-3A, sequence (P31941 whole entry): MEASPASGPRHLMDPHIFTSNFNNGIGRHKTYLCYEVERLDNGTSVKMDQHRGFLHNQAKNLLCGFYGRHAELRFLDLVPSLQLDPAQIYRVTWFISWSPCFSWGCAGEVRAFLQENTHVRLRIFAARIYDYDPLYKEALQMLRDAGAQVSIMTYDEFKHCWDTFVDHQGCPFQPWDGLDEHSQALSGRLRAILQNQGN

[3] = molecular target: DNA dC->dU-editing enzyme APOBEC-3G (Homo sapiens, UniProt Q9HC16); type: functional;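 note: Dose-response counterscreen measuring inhibition of APOBEC3G DNA deaminase activity, run while confirming APOBEC3A inhibitors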
DNA dC->dU-editing enzyme APOBEC-3G, sequence (Q9HC16 whole entry, the tested form may be a part): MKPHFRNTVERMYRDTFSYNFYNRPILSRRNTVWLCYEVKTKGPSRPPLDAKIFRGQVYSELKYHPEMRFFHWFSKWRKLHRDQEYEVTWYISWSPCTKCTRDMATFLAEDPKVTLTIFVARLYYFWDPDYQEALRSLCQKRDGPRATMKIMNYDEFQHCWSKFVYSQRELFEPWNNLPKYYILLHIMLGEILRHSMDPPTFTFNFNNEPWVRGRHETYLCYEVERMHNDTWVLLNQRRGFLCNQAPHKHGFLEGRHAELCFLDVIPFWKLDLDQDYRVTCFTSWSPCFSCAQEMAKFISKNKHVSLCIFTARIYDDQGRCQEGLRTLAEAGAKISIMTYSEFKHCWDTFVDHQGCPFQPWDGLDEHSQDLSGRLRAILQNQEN

[4] = molecular target: T1, Carboxy-terminal domain RNA polymerase II polypeptide A small phosphatase 1 (Homo sapiens, UniProt Q9GZU7); assay: inhibitors of CTDSP1, concentration-response testing, biochemical assay, absorbance-based, actives from ultra-high-throughput screening (AID 540297); type: functional
T1 sequence (Q9GZU7 whole entry): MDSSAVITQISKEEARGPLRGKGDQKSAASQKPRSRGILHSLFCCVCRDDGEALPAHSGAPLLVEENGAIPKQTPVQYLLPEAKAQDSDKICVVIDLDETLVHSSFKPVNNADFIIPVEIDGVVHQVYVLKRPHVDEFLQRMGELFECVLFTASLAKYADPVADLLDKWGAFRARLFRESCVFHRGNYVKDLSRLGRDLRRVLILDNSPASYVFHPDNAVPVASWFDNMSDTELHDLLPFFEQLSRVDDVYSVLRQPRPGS

[5] = molecular target: Dual specificity tyrosine-phosphorylation-regulated kinase 1A (Rattus norvegicus, UniProt Q63470); type: biochemical, Homo sapiens
[6] = molecular target: Large T antigen (Simian virus 40, UniProt P03070); type: functional, Betapolyomavirus macacae;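 note: Confirmatory-stage PubChem screen for compounds that inhibit SV40 T antigen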
Large T antigen, sequence (P03070 whole entry): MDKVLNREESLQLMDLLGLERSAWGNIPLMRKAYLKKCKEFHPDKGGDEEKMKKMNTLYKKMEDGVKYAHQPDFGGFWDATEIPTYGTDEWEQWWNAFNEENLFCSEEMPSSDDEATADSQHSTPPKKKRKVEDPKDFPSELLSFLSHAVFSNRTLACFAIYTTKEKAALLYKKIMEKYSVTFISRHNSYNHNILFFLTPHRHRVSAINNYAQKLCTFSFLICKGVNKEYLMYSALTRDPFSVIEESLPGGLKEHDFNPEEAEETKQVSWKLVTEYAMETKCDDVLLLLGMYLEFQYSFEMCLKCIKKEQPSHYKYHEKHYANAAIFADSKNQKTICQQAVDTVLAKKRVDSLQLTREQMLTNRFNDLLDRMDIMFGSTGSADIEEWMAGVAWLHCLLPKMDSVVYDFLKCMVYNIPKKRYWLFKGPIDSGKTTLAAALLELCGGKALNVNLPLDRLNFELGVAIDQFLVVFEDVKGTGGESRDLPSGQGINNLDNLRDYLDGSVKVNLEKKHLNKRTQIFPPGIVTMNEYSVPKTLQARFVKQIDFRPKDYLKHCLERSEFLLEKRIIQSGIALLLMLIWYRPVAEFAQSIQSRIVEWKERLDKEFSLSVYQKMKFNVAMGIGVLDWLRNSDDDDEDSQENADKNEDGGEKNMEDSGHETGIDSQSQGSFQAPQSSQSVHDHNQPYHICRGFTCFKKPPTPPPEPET

[7] = molecular target: Glucose-6-phosphate 1-dehydrogenase (Homo sapiens, UniProt P11413); assay: human G6PD enzyme inhibitors, dose response, selectivity assay for P. falciparum G6PD inhibitor project, biochemical, fluorescence (AID 504792); type: functional
Glucose-6-phosphate 1-dehydrogenase, sequence (P11413 whole entry): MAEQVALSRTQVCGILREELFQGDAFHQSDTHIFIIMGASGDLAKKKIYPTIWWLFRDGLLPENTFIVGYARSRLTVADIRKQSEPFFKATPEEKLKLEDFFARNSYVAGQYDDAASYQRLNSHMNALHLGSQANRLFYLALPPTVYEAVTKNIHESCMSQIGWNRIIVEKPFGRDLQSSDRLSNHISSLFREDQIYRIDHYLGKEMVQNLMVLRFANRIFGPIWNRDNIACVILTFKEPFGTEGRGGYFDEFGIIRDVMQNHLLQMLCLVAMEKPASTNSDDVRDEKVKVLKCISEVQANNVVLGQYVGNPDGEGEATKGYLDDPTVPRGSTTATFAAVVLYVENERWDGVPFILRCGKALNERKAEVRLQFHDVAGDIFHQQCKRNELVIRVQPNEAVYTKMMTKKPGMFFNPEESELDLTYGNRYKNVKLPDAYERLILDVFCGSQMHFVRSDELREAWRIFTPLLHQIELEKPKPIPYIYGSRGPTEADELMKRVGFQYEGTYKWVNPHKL

[8] = test system: HEK293; assay: inhibitors of LMP1-driven NF-kB reporter, dose response, cell-based, HEK293, luciferase, cherry-pick (AID 588343); type: functional; conditions: Homo sapiens
[9] = LGR2 antagonists, dose response, cell-based, HEK293, CRE-luciferase reporter, cherry pick, set 2 (AID 743343); type: functional;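 note: transfected cells were stimulated with diluted bursicon conditioned medium after compound addition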
[10] = MC4R antagonists, dose response, counter-screen for LGR2 antagonist project, cell-based, plate reader, cherry pick (AID 743444); type: functional;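 note: transfected HEK 293 cells stimulated with alpha-MSH peptide; potency of inhibitors of the alpha-MSH evoked signal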
[11] = molecular target: T2, Heat shock factor protein 1 (Mus musculus, UniProt P38532); assay: inhibition of MG132-induced HSE-luciferase signal, confirmation, cell-based, NIH3T3, luminescence, dose retest (AID 2382); type: functional;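 note: NIH3T3 fibroblasts with HSF1-driven luciferase reporter stressed by proteasome inhibitor MG132; luminescence from HSF1-driven luciferase expression after 8 hours of MG132 stress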
T2 sequence (P38532 whole entry): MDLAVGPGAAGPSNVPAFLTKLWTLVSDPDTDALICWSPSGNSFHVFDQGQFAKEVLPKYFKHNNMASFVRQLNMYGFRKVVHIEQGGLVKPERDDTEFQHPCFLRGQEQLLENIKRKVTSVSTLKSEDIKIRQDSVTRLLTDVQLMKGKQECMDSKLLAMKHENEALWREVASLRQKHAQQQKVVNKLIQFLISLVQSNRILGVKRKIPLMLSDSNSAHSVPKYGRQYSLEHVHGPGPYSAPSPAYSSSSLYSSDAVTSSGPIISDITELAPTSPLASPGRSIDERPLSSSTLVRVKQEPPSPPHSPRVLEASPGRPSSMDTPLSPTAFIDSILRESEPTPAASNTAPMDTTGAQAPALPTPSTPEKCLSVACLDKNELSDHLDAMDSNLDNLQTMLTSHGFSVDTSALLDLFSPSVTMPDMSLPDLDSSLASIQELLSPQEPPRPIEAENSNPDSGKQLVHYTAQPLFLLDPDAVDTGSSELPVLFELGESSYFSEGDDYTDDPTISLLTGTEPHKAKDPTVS

[12] = molecular target: Tumor necrosis factor (Homo sapiens, UniProt P01375); assay: TNFa-triggered NF-kB activation inhibitors, SAR follow-up, cell-based, revised (AID 2337); type: functional
Tumor necrosis factor, sequence (P01375 whole entry, the tested form may be a part): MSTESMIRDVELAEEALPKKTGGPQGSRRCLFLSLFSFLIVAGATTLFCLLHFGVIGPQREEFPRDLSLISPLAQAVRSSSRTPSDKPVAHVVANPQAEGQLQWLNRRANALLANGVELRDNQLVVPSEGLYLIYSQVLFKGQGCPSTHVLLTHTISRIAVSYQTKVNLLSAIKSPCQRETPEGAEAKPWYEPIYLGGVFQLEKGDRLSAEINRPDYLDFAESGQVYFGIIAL

[13] = molecular target: T3, Nucleotide-binding oligomerization domain-containing protein 1 (Homo sapiens, UniProt Q9Y239); assay: NOD1 signaling inhibitors, SAR follow-up, revised (AID 2333); type: functional
T3 sequence (Q9Y239 whole entry): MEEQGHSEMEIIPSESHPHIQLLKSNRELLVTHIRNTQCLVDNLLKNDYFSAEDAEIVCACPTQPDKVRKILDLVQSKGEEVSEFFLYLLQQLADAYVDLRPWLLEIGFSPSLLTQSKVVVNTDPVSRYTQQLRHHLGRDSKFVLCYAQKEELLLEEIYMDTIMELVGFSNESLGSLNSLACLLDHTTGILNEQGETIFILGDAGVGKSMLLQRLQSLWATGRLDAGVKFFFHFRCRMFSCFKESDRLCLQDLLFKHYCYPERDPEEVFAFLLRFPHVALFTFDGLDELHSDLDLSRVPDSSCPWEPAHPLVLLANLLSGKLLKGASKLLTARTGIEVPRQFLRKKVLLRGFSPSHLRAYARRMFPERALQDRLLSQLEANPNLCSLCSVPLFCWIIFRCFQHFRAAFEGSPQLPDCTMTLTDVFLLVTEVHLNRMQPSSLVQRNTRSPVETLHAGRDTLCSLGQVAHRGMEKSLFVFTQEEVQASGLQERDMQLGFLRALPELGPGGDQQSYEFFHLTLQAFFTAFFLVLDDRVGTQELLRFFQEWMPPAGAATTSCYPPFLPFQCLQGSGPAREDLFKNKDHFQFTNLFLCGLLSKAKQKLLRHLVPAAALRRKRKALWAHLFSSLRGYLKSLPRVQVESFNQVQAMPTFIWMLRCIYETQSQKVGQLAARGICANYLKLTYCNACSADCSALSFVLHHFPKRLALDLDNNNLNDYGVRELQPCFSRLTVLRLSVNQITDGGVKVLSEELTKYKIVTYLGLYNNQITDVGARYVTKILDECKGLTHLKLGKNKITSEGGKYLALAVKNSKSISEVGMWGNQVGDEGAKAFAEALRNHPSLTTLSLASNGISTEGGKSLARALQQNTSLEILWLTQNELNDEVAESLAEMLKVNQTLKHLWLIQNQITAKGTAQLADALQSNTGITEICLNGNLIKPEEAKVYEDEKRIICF

[14] = molecular target: T4, Microphthalmia-associated transcription factor (Homo sapiens, UniProt O75030); assay: TRPM1 promoter luciferase signal decrease, dose response, MITF inhibitor project, cell-based, SK-MEL-5, cherry-picked, set 3 (AID 493073); type: functional
T4 sequence (O75030 whole entry): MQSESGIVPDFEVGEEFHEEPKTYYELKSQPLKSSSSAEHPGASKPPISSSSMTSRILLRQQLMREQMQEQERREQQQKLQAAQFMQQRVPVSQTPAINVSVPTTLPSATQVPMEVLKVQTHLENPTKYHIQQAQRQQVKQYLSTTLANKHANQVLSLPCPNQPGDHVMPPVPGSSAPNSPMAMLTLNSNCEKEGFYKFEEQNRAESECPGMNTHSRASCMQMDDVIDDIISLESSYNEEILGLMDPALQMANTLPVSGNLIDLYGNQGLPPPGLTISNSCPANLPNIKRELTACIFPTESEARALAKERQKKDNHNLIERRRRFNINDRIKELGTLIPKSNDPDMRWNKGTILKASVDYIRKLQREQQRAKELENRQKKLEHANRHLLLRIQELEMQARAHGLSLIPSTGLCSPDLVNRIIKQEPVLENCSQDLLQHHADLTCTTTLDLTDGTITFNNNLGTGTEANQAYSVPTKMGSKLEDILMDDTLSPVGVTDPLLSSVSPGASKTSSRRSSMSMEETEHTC

[15] = test system: HEK293; assay: cells; conditions: Homo sapiens
[16] = molecular target: Peroxisome proliferator-activated receptor gamma/Nuclear receptor coactivator 1 (Homo sapiens, UniProt P37231); assay: (§1) TR-FRET dose response biochemical High Throughput Screening assay for agonists of the steroid receptor coactivator 1 (SRC-1) recruitment by the peroxisome proliferator-activated receptor gamma (PPAR gamma): non-selective agonists. [Related pubchem assays (depositor defined):AID1300, AID1808, AID504735, AID631]; type: protein assay
[17] = molecular target: Peroxisome proliferator-activated receptor gamma/Nuclear receptor coactivator 3 (Homo sapiens, UniProt P37231); assay: as §1, with “3 (SRC-3)” for “1 (SRC-1)”, “assays: 1301 (Confirmation screen.), 1048 (Primary screen.)]” for “assays (depositor defined):AID1300, AID1808, AID504735, AID631]”; type: functional
[18] = molecular target: Peroxisome proliferator-activated receptor gamma/Nuclear receptor coactivator 2 (Homo sapiens, UniProt P37231); assay: TR-FRET dose response biochemical High Throughput Screening assay for agonists of the steroid receptor coactivator 2 (SRC-2) recruitment by the peroxisome proliferator-activated receptor gamma (PPAR gamma): non-selective agonists. [Related pubchem assays: 1297, 1032 ]; type: functional

Voltage-gated inwardly rectifying potassium channel KCNH2, sequence (Q12809 whole entry): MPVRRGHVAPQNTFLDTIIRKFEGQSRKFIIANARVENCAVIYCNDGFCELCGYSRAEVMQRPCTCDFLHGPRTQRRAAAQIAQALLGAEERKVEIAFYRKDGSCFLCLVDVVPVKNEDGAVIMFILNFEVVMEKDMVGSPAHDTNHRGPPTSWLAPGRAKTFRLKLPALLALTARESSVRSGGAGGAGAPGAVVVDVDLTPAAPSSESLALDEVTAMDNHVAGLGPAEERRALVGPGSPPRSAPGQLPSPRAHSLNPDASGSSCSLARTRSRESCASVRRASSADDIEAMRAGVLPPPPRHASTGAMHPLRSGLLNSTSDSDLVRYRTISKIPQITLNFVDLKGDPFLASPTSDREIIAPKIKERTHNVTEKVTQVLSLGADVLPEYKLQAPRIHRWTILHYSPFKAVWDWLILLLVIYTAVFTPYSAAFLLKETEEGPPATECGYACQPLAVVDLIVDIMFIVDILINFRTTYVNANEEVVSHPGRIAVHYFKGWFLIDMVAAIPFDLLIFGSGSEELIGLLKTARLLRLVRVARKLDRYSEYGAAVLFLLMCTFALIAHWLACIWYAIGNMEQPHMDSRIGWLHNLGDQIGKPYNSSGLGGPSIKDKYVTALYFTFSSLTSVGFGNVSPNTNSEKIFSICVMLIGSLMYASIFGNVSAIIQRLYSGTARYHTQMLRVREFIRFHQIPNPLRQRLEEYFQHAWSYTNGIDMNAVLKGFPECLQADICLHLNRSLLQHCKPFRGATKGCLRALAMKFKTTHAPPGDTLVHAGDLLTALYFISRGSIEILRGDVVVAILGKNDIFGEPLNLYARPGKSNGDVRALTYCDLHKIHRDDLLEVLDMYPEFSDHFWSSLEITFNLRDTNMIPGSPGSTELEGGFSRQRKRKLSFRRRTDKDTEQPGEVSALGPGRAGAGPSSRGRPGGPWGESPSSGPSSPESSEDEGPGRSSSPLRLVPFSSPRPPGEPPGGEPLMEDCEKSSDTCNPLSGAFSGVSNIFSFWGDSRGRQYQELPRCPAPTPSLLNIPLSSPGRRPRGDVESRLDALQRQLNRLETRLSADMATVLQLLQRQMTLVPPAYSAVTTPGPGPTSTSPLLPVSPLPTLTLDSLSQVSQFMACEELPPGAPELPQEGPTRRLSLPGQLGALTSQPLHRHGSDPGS

With NCC(O)C1CCCCCCC1 (centres undefined) the AC50 [1] was 15.8 µM (inconclusive).

For O=C(N=C1NCCS1)C1CCN(S(=O)(=O)c2cc([N+](=O)[O-])ccc2Cl)CC1, the IC50 [2] was 22 µM (active), the IC50 [3] was 52.5 µM (active) and the IC50 [4] was 3.39 µM (active).

For NC1=NC(=O)/C(=C\c2ccc(O)c([N+](=O)[O-])c2)S1, the AC50 [5] was 1.23 µM (active).

With COc1ccc(NC2CCCN(Cc3cccc4cnccc34)C2)cc1OC (centres undefined) the IC50 [6] was 42.5 µM (active) and the IC50 [7] was > 80 µM (inactive).

With [O-]/[N+](=C\c1ccccc1)c1ccc(Br)cc1 the IC50 [7] was 22.1 µM (inactive).

In the case of O=C(Nc1cccc(C(=O)O)c1)Nc1ccccc1Cl, the AC50 [8] is reported as 4.97 µM (active), the AC50 [9] is reported as 2.75 µM (active) and the AC50 [10] is reported as 4.29 µM (active).

For COCCn1c(C)cc(C(=O)COC(=O)c2ccccc2Br)c1C, the EC50 [11] was < 0.16 µM (active), the IC50 [12] was < 0.0391 µM (active) and the IC50 [13] was 11.3 µM (active). For the same molecule, the AC50 [14] was 1.14 µM (active) and the IC50 [15] was > 20 µM (inactive).

For O=C1c2ccccc2-c2cccc(NS(=O)(=O)c3ccc(C(F)(F)F)cc3)c21, the EC50 [16] was > 79.4 µM (inactive), the EC50 [17] was > 79.4 µM (not active) and the EC50 [18] was > 79.4 µM (not active).

Reference: ChEMBL document CHEMBL1201862, “PubChem BioAssay data set” (2004)
